± gives the standard deviation of the averaged measurements.
Legend:
Assay in all cases: level (log10 ratio to DMSO vehicle control); higher = higher biomarker level / cell amount than vehicle control
[1] = compound: CCOC(=O)CC(=O)C(F)(F)C(F)(F)F [Ethyl pentafluoropropionyl acetate] (in DMSO)
Description: (§1)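 BioMAP Diversity Plus panel of 12 human primary cell co-culture systems (3C, 4H, LPS, SAg, BT, BF4T, BE3C, CASM3C, HDF3CGF, KF3CT, MyoF, Mphg). Compounds were added 1 h before stimulation and left for 24 h (MyoF 48 h; BT 72 h for soluble read-outs or 6 d for IgG). Biomarkers were read by ELISA, cytotoxicity by SRB, PBMC viability and proliferation by Alamar Blue. Each well value was divided by the mean of 8 DMSO control wells on the same plate and log10 transformed; duplicate blinded samples were tested at 4 concentrations.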

[2] = compound: C[C@@H]1C[C@H]2[C@@H]3CCC4=CC(=O)C=C[C@]4(C)[C@@]3(F)[C@@H](O)C[C@]2(C)[C@@]1(O)C(=O)COP(=O)(O)O [Dexamethasone sodium phosphate] (in DMSO)
Description: as §1

Octafluoroadipic acid = compound: O=C(O)C(F)(F)C(F)(F)C(F)(F)C(F)(F)C(=O)O [Octafluoroadipic acid] (in DMSO)
Description: as §1

[3] = compound: O=C(O)C(F)(F)OC(F)(F)C(F)(F)OC(F)(F)C(F)(F)OC(F)(F)C(F)(F)C(F)(F)C(F)(F)F [Perfluoro-3,6,9-trioxatridecanoic acid] (in DMSO); details: 6700 nM
Description: as §1

[4] = compound: O=S(=O)(O)CCC(F)(F)C(F)(F)C(F)(F)C(F)(F)C(F)(F)C(F)(F)C(F)(F)C(F)(F)F [8:2 Fluorotelomer sulfonic acid] (in DMSO)
Description: as §1

[5] = compound: OCC(F)(F)C(F)(F)C(F)(F)C(F)(F)C(F)(F)C(F)(F)CO [1H,1H,8H,8H-Perfluorooctane-1,8-diol] (in DMSO)
Description: as §1

[6] = compound: OCC(F)(F)C(F)(F)C(F)(F)C(F)F [1H,1H,5H-Perfluoropentanol] (in DMSO)
Description: as §1

Test System | level (log10) ([1]; 6700 nM) | level (log10) ([1]; 20000 nM) | level (log10) ([1]; 60000 nM) | level (log10) ([2]; 1500 nM) | level (log10) ([2]; 4400 nM) | level (log10) ([2]; 13000 nM) | level (log10) ([2]; 40000 nM) | level (log10) (Octafluoroadipic acid; 6700 nM) | level (log10) (Octafluoroadipic acid; 20000 nM) | level (log10) (Octafluoroadipic acid; 60000 nM) | level (log10) [3] | level (log10) ([4]; 6700 nM) | level (log10) ([4]; 20000 nM) | level (log10) ([4]; 60000 nM) | level (log10) ([5]; 6700 nM) | level (log10) ([5]; 20000 nM) | level (log10) ([5]; 60000 nM) | level (log10) ([6]; 6700 nM) | level (log10) ([6]; 20000 nM) | level (log10) ([6]; 60000 nM)
BE3C:Keratin 8/18 | 0.0105 ± 0.022 | 0.0095 ± 0.033 | 0.001 ± 0.0085 | 0.0045 ± 0.012 | 0.0035 ± 0.00071 | -0.025 ± 0.0042 | -0.0165 ± 0.0064 | -0.0095 ± 0.0078 | -0.0105 ± 0.025 | 0.0095 ± 0.0021 | -0.293 ± 0.032 | 0.007 ± 0.0042 | 0.017 ± 0.0085 | 0.043 ± 0.014 | -0.0155 ± 0.022 | -0.017 ± 0.0014 | -0.0375 ± 0.0035 | -0.0225 ± 0.011 | 0.0135 ± 0.005 | 0.0035 ± 0.025
BE3C:MMP-1 | -0.01 ± 0.013 | -0.023 ± 0.018 | 0.021 ± 0.0014 | -0.113 ± 0.059 | -0.0825 ± 0.11 | -0.137 ± 0.052 | -0.141 ± 0.069 | -0.0145 ± 0.025 | -0.0205 ± 0.037 | 0.0155 ± 0.0021 | -0.471 ± 0.023 | 0.048 ± 0.024 | 0.1715 ± 0.00071 | 0.232 ± 0.027 | 0.0125 ± 0.012 | -0.0055 ± 0.013 | 0.0425 ± 0.056 | -0.014 ± 0.011 | 0.029 ± 0.024 | 0.023 ± 0.03
BE3C:MMP-9 | 0.006 ± 0.044 | -0.0145 ± 0.033 | -0.0065 ± 0.013 | -0.02 ± 0.0028 | -0.0185 ± 0.013 | -0.013 ± 0.0028 | -0.036 ± 0.0099 | -0.0065 ± 0.022 | -0.002 ± 0.016 | 0.0065 ± 0.0064 | -0.4295 ± 0.0021 | 0.0045 ± 0.0064 | 0.0325 ± 0.035 | 0.015 ± 0.031 | -0.001 ± 0.028 | 0.0005 ± 0.016 | 0.0015 ± 0.005 | -0.009 ± 0.016 | 0.0235 ± 0.018 | 0.0175 ± 0.022
BE3C:PAI-I | 0.008 ± 0.0014 | -0.006 ± 0.014 | 0.0045 ± 0.018 | 0.0905 ± 0.025 | 0.109 ± 0.016 | 0.098 ± 0.028 | 0.0635 ± 0.054 | -0.0025 ± 0.005 | 0.0015 ± 0.0035 | 0.0025 ± 0.0035 | -0.526 ± 0.018 | 0.044 ± 0.014 | 0.126 ± 0.026 | 0.0955 ± 0.011 | 0.025 ± 0.024 | 0.031 ± 0.0099 | 0.0325 ± 0.011 | -0.043 ± 0.021 | 0.023 ± 0.048 | 0.0495 ± 0.047
BE3C:SRB | -0.002 ± 0.0042 | -0.0015 ± 0.0035 | 0.002 ± 0.0071 | 0.0135 ± 0.013 | 0.003 ± 0.0014 | 0.002 ± 0.0014 | 0.0115 ± 0.0064 | 0.0035 ± 0.005 | 0.0005 ± 0.0035 | -0.0035 ± 0.0092 | -0.231 ± 0.012 | -0.007 ± 0.0071 | -0.017 | -0.025 ± 0.0085 | -0.003 ± 0.0028 | -0.0025 ± 0.0021 | -0.0015 ± 0.0035 | 0 ± 0.0014 | 0.0025 ± 0.0092 | 0.007 ± 0.011
BE3C:tPA | -0.019 ± 0.041 | -0.034 ± 0.038 | -0.028 ± 0.035 | -0.149 ± 0.029 | -0.175 ± 0.013 | -0.219 ± 0.062 | -0.197 ± 0.0035 | -0.003 ± 0.0028 | 0.004 ± 0.0099 | 0.0015 ± 0.0064 | -0.452 ± 0.005 | 0.0755 ± 0.021 | 0.0535 ± 0.0064 | -0.021 ± 0.0099 | 0.0105 ± 0.016 | 0.01 ± 0.011 | 0.03 ± 0.0057 | -0.019 ± 0.0042 | -0.022 ± 0.017 | -0.0035 ± 0.011

— the supplement of paper PMC10331698
